Source: paper PMC6407917, “Identification of GSK3186899/DDD853651 as a Preclinical Development Candidate for the Treatment of Visceral Leishmaniasis” (Journal of Medicinal Chemistry, 2018)

What was measured:
Assay in all cases: biochemical
Parameters in all cases: species or system HEK293/K-562/placenta mixed human extract; Kinobeads chemoproteomic competition binding, quantified by TMT LC-MS/MS, dose response up to 20 uM
EPHB2 = EPHB2 (Homo sapiens, UniProt P29323)
CHUK = CHUK (Homo sapiens, UniProt O15111)
MAP3K2 = MAP3K2 (Homo sapiens, UniProt Q9Y2U5)
TAOK1 = TAOK1 (Homo sapiens, UniProt Q7L7X3)
STK39 = STK39 (Homo sapiens, UniProt Q9UEW8)
EPHB4 = EPHB4 (Homo sapiens, UniProt P54760)
MAPKAPK3 = MAPKAPK3 (Homo sapiens, UniProt Q16644)
PLK1 = PLK1 (Homo sapiens, UniProt P53350)
MYLK3 = MYLK3 (Homo sapiens, UniProt Q32MK0)
TAOK3 = TAOK3 (Homo sapiens, UniProt Q9H2K8)
MAP3K11 = MAP3K11 (Homo sapiens, UniProt Q16584)
PRKCZ = PRKCZ (Homo sapiens, UniProt Q05513)
SRC = SRC (Homo sapiens, UniProt P12931)
PRKAG2 = PRKAG2 (Homo sapiens, UniProt Q9UGJ0)
MAPK14 = MAPK14 (Homo sapiens, UniProt Q16539)
MAP3K7 = MAP3K7 (Homo sapiens, UniProt O43318)
CSNK1G3 = CSNK1G3 (Homo sapiens, UniProt Q9Y6M4)
YWHAG = YWHAG (Homo sapiens, UniProt P61981)
ERBB4 = ERBB4 (Homo sapiens, UniProt Q15303)
AURKB = AURKB (Homo sapiens, UniProt Q96GD4)
FRK = FRK (Homo sapiens, UniProt P42685)
FRK, sequence (P42685 whole entry): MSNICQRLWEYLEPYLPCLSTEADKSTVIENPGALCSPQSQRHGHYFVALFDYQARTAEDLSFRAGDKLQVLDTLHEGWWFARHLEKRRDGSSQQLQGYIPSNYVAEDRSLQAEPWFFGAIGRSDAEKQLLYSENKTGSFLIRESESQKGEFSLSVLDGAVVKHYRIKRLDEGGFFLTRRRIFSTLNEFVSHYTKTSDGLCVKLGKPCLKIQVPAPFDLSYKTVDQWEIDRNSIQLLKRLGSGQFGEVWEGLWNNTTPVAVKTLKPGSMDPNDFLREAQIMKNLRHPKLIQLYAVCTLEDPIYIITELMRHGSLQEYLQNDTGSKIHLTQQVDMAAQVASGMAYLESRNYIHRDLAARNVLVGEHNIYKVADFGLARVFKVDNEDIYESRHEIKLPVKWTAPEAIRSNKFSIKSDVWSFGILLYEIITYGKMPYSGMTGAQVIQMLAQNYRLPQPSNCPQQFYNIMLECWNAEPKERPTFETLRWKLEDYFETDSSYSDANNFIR

CHUK, sequence (O15111 whole entry): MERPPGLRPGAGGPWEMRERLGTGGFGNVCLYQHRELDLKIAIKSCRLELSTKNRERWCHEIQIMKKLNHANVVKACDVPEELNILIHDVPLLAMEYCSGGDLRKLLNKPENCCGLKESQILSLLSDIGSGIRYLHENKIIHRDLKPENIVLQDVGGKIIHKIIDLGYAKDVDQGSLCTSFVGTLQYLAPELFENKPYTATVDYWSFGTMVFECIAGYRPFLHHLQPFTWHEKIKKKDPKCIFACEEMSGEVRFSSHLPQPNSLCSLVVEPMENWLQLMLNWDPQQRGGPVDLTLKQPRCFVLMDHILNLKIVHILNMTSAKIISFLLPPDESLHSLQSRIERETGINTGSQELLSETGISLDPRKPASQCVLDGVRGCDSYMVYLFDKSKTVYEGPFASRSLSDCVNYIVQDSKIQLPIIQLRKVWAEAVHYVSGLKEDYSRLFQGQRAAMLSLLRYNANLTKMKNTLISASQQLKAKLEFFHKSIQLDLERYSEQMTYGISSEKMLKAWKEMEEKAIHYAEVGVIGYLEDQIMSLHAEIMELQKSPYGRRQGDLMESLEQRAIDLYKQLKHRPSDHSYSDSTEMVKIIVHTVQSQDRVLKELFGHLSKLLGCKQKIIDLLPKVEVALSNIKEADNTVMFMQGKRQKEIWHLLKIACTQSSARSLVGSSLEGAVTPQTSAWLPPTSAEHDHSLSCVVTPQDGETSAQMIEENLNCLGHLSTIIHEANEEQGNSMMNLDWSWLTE
TAOK1, sequence (Q7L7X3 whole entry): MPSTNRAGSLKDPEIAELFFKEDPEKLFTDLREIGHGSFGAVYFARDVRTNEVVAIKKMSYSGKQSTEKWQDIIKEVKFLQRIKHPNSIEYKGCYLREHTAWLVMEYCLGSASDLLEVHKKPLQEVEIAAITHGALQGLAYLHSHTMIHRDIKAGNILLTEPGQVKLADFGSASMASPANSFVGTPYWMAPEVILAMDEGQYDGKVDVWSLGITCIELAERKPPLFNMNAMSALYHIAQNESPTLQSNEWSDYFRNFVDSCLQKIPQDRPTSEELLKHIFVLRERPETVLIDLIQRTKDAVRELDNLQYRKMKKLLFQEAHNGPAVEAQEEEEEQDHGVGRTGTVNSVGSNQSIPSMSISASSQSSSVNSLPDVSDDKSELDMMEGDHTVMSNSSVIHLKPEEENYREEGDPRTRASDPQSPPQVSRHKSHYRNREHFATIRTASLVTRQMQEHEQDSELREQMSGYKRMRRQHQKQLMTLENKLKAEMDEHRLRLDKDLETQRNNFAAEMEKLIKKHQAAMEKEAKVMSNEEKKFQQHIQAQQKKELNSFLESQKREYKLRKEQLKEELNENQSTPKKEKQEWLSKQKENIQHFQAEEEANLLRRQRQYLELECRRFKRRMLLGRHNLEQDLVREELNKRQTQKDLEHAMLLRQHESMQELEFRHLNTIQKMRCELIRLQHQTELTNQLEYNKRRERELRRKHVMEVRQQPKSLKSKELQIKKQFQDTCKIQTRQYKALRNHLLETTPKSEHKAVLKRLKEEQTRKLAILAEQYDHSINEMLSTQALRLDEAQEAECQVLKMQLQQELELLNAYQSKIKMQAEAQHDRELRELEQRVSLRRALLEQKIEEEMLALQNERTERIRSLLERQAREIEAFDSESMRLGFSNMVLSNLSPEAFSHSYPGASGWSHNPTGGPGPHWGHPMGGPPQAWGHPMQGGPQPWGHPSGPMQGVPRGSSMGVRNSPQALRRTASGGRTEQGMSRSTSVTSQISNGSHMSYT
PRKCZ, sequence (Q05513 whole entry): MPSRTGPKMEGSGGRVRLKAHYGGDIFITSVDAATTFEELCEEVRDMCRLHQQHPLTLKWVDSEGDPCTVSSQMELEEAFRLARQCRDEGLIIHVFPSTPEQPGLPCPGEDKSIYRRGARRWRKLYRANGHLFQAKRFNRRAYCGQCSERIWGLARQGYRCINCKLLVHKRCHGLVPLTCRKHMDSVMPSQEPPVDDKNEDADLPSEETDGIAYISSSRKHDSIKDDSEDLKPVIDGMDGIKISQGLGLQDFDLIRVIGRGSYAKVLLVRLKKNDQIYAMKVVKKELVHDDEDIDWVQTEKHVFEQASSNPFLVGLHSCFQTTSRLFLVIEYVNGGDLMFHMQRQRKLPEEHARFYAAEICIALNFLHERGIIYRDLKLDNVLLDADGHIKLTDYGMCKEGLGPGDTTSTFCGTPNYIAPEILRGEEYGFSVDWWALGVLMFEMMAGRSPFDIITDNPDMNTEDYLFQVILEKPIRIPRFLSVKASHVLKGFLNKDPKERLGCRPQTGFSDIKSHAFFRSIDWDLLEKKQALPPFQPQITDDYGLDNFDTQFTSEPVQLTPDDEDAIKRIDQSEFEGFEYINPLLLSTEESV
MAP3K11, sequence (Q16584 whole entry): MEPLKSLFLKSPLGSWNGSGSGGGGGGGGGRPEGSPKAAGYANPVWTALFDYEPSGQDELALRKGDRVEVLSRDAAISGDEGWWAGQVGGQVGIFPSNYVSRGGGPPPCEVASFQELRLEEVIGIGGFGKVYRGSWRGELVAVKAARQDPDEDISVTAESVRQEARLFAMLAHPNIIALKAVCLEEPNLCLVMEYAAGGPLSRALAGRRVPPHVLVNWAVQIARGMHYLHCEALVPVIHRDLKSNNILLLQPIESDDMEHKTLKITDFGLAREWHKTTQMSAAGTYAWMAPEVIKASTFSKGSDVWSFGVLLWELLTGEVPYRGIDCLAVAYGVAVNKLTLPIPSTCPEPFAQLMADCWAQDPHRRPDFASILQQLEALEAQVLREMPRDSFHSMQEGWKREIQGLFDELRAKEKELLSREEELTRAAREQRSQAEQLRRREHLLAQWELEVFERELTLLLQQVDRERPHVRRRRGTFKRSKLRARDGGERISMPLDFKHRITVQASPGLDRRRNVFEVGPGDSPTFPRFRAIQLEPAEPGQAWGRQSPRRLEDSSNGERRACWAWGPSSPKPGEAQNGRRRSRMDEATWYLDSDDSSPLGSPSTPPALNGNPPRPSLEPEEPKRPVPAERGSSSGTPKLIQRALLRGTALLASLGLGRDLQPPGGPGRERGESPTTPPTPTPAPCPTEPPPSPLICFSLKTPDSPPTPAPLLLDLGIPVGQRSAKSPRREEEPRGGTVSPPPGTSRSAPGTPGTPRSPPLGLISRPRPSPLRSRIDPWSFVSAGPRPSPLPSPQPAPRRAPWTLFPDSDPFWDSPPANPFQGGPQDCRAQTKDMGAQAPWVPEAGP
YWHAG, sequence (P61981 whole entry): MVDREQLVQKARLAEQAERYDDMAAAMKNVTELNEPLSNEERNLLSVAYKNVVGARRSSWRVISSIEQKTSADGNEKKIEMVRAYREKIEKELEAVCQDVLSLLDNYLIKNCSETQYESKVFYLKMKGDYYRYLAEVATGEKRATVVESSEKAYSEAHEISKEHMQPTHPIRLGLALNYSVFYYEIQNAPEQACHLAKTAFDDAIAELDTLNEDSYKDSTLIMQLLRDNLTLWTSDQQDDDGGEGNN
TAOK3, sequence (Q9H2K8 whole entry): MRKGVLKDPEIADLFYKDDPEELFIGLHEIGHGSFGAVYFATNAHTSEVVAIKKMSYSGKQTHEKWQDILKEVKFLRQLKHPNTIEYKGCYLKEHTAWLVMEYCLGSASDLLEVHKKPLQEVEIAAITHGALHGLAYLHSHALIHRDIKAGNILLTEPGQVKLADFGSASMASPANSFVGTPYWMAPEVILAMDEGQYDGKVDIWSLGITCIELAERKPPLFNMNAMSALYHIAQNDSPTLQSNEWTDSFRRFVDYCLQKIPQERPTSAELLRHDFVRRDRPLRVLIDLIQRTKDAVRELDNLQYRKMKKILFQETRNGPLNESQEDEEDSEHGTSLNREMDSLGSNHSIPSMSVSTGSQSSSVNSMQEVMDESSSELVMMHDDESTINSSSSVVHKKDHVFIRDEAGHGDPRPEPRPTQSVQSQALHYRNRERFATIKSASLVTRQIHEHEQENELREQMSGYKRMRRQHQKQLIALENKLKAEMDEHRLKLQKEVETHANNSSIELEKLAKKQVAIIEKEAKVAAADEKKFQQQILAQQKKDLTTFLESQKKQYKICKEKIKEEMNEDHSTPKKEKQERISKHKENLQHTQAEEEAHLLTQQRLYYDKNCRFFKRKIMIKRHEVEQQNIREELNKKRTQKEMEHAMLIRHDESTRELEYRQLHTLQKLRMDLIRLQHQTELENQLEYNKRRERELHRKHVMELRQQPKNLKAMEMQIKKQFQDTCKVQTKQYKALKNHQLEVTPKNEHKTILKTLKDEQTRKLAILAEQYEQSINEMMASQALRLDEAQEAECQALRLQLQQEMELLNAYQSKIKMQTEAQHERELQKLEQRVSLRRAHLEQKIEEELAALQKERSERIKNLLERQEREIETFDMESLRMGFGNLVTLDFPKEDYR

## COc1ccccc1-c1n[nH]c2nc(N[C@H]3CC[C@H](NS(=O)(=O)CCC(F)(F)F)CC3)nc(OC)c12 [compound 31, 3,3,3-Trifluoro-N-(trans-4-((4-methoxy-3-(2-methoxyphenyl)-1H-pyrazolo[3,4-d]pyrimidin-6-yl)amino)cyclohexyl)propane-1-sulfonamide]
EPHB2
  IC50: ≥ 20 µM
CHUK
  IC50: ≥ 20 µM
MAP3K2
  IC50: ≥ 20 µM
TAOK1
  IC50: 1.5 µM
STK39
  IC50: ≥ 20 µM
EPHB4
  IC50: ≥ 20 µM
MAPKAPK3
  IC50: ≥ 20 µM
PLK1
  IC50: ≥ 20 µM
MYLK3
  IC50: ≥ 20 µM
TAOK3
  IC50: 0.93 µM
MAP3K11
  IC50: ≥ 20 µM
PRKCZ
  IC50: ≥ 20 µM
SRC
  IC50: ≥ 20 µM
PRKAG2
  IC50: ≥ 20 µM
MAPK14
  IC50: ≥ 20 µM
MAP3K7
  IC50: ≥ 20 µM
CSNK1G3
  IC50: ≥ 20 µM
YWHAG
  IC50: ≥ 20 µM
ERBB4
  IC50: ≥ 20 µM
AURKB
  IC50: ≥ 20 µM
FRK
  IC50: ≥ 20 µM
